From article PMC8619434 (Viruses, 2021)
“Also recorded” adds a separate entry of the source. Where a name gives a salt, the structure may show the parent alone. Read-outs that look alike come from different tables or passages of the source.

How the values were obtained:
[1] = tested on: VSV-G pseudovirus; assay: microbe, parasite or virus in culture; type: cell-based, vesicular stomatitis virus; conditions: for activity at 10 µM: Pseudovirus, 293T/ACE2, read-out: % Infectivity of VSV-G pv
[2] = tested on: Calu3 cells
[3] = in vitro; conditions: human
[4] = tested on: MERS-CoV-S pseudovirus; type: cell-based
[5] = tested on: SARS-CoV-2 spike protein pseudovirus; assay: microbe, parasite or virus in culture; type: cell-based; conditions: for activity at 10 µM: 293T/ACE2, 48 h, read-out: % Infectivity of SARS-2-Spike pv
[6] = tested on: SARS-CoV-1-S pseudovirus; type: cell-based
[7] = tested on: SARS-CoV-2 spike protein pseudovirus; type: cell-based
[8] = tested on: SARS-CoV-2 spike protein pseudovirus; type: cell-based; remark: listed apart in the source
[9] = tested on: SARS-CoV-2 spike protein pseudovirus; conditions: Caco-2
[10] = within current drug treatment regimes; ref PubChem database; read-out: peak serum concentration (Cmax); cited from earlier work
[11] = tested on: SARS-CoV-2 spike protein pseudovirus; type: cell-based; remark: listed apart in the source
[12] = tested on: SARS-CoV-2 spike protein pseudovirus; type: cell-based; remark: listed apart in the source
[13] = predictions for the uncharged form; ref https://go.drugbank.com; cited from earlier work
[14] = values for the salts; ref chemical supplier datasheets; cited from earlier work
[15] = tested on: SARS-CoV-2 spike protein pseudovirus; type: cell-based; remark: listed apart in the source
[16] = 293T/ACE2, read-out: IC50 of SARS-CoV-2-S pseudovirus infectivity

For `CCOC(=O)C1=C(COCCN)NC(C)=C(C(=O)OC)C1c1ccccc1Cl` (stereo not drawn) [amlodipine], the “% Infectivity of VSV-G pv” value [1] was 78%, the “toxicity in Calu3 cells (word printed in Figure 7)” value (“toxicity in Calu3 cells” below) [2] was “toxic” and the viability ([3]; % Viability of SARS-2-Spike pv) was 115%. The “inhibition of MERS-CoV-S pseudovirus infection” value [4] was “non-significant inhibition”, the activity at 10 µM [5] was 12% and the IC50 [5, 16] was 5600 nM. The “inhibition of SARS-CoV-1-S pseudovirus infection” value [6] was “significant inhibition”.
With `CN(C)C(=O)COC(=O)Cc1ccc(OC(=O)c2ccc(NC(=N)N)cc2)cc1` [camostat mesylate] the “% Infectivity of VSV-G pv” value [1] was “did not inhibit”, the “% infectivity of SARS-CoV-2 pseudovirus in Calu3 cells” value (“% infectivity … in Calu3 cells” for short) [7] was “inhibited” and the “inhibition of SARS-CoV-2 pseudovirus infection of A549-ACE2 cells” value (from here on “inhibition … of A549-ACE2 cells”) [8] was “failed to inhibit”. The “inhibition of MERS-CoV-S pseudovirus infection” value [4] was “did not inhibit”, the activity at 10 µM [5] was 120% and the “inhibition of SARS-CoV-1-S pseudovirus infection” value [6] was “did not inhibit”. For the same molecule, the “inhibition of SARS-CoV-2 pseudovirus infection of Caco2 cells” value [9] was “inhibited”.
In the case of `CN(C)CC/C=C1/c2ccccc2Sc2ccc(Cl)cc21` [chlorprothixene], the activity at 10 µM [1] is listed as 48%, the Cmax [10] is listed as 1400 nM and the viability ([3]; % Viability of SARS-2-Spike pv) is listed as 97%. For the same molecule, the “% infectivity … in Calu3 cells” value [7] was 44%, the “% infectivity in attachment assay” value [11] was “did not inhibit virus attachment” and the “% infectivity, drug added at 1 hpi (post-entry)” value [12] was 45%. The activity at 10 µM [5] was 5% and the IC50 [5, 16] was 1940 nM.
In the case of `CCN(CCO)CCCC(C)Nc1ccnc2cc(Cl)ccc12` (stereo not drawn) [hydroxychloroquine sulfate], the activity at 10 µM [1] is reported as 103%, the viability ([3]; % Viability of SARS-2-Spike pv) is reported as 90% and the “% infectivity in attachment assay” value [11] is reported as “did not inhibit attachment”. For the same molecule, the “inhibition … of A549-ACE2 cells” value [8] was “failed to inhibit”, the “inhibition of MERS-CoV-S pseudovirus infection” value [4] was “inhibited” and the activity at 10 µM [5] was 2%. For the same molecule, the IC50 [5, 16] was 660 nM, the IC50 ([5]; read-out: IC50 of SARS-CoV-2-S pseudovirus infectivity) was 700 nM and the “inhibition of SARS-CoV-1-S pseudovirus infection” value [6] was “inhibited”. For the same molecule, the water solubility a [13] was 60 µM and the water solubility b [14] was 200 mM.
In the case of `CN[C@H]1CC[C@@H](c2ccc(Cl)c(Cl)c2)c2ccccc21` [sertraline HCl], the activity at 10 µM [1] is reported as 71%, the “toxicity in Calu3 cells” value [2] is reported as “toxic” and the viability ([3]; % Viability of SARS-2-Spike pv) is reported as 95%. The activity at 10 µM [5] was 8%.
With `CC(C)OC(=O)OCOP(=O)(CO[C@H](C)Cn1cnc2c(N)ncnc21)OCOC(=O)OC(C)C.O=C(O)/C=C/C(=O)O` [tenofovir, tenofovir disoproxil fumarate] the “% Infectivity of VSV-G pv” value [1] was “potently inhibited; also recorded: completely inhibited”, the “inhibition of SARS-CoV-2 pseudovirus infection of Vero cells” value [15] was “complete inhibition” and the “% infectivity … in Calu3 cells” value [7] was “complete inhibition”. The “inhibition … of A549-ACE2 cells” value [8] was “complete inhibition”, the “% infectivity, drug added at 1 hpi (post-entry)” value [12] was “complete inhibition” and the “inhibition of MERS-CoV-S pseudovirus infection” value [4] was “completely inhibited”. For the same molecule, the “% Infectivity of SARS-2-Spike pv” value [5] was “completely inhibited”, the “inhibition of SARS-CoV-1-S pseudovirus infection” value [6] was “completely inhibited” and the “inhibition of SARS-CoV-2 pseudovirus infection of Caco2 cells” value [9] was “complete inhibition”.
In the case of `CSc1ccc2c(c1)N(CCC1CCCCN1C)c1ccccc1S2` (stereo not drawn) [thioridazine HCl], the activity at 10 µM [1] is reported as 69%, the viability ([3]; % Viability of SARS-2-Spike pv) is reported as 71% and the “% infectivity … in Calu3 cells” value [7] is reported as 22%. For the same molecule, the “% infectivity in attachment assay” value [11] was 28%, the “inhibition of MERS-CoV-S pseudovirus infection” value [4] was “non-significant inhibition” and the activity at 10 µM [5] was 6%. For the same molecule, the “inhibition of SARS-CoV-1-S pseudovirus infection” value [6] was “significant inhibition”, the water solubility a [13] was 2.1 µM and the water solubility b [14] was 122 mM.
In the case of `COc1cc2c(Nc3ccc(Br)cc3F)ncnc2cc1OCC1CCN(C)CC1` [vandetanib], the activity at 10 µM [1] is reported as 125%, the “toxicity in Calu3 cells” value [2] is reported as “toxic” and the viability [3] is reported as 89%. The activity at 10 µM [5] was 1% and the IC50 [5, 16] was 6450 nM.
